Tested on: not listed separately
Assay: Inhibition of C-terminal GST-tagged SARS-CoV-2 Main protease extracted from Escherichia coli BL21 (DE3) measured for 60 mins by FRET assay
Design: species or system Severe acute respiratory syndrome coronavirus 2
Conditions: not given

Compound | IC50 [nM]
O=c1c2cccc([N+](=O)[O-])c2[se]n1-c1ccccc1 | 740
O=c1c2ccccc2[se]n1-c1cccc2cccnc12 | 2600
O=c1c2cccc([N+](=O)[O-])c2[se]n1Cc1ccccc1 | 2010

Tested on: not listed separately
Assay: Inhibition of SARS-CoV-2 MPro using Dabcyl-KTSAVLQSGFRKME-Edans as substrate preincubated for 30 mins followed by substrate addition and measured after 60 mins by fluorescence based assay
Design: species or system Severe acute respiratory syndrome coronavirus 2
Conditions: not given

Compound | IC50 [nM]
O=C(NCc1ccccn1)C(=O)[C@@H](Cc1ccccc1)NC(=O)[C@H]1CCC(=O)N1Cc1ccccc1 | 3000

Molecular target: T1, Replicase polyprotein 1ab (Severe acute respiratory syndrome coronavirus 2, UniProt P0DTD1)
Assay: Inhibition of N-terminal 6His-tagged SARS-CoV-2 3CL protease using FAM-SAVLQ as substrate pre-incubated for 15 mins followed by substrate addition and incubated for 30 mins by FRET analysis
Conditions: not given

Compound | IC50 [nM]
CC(C)C[C@H](NC(=O)OC[C@@H]1C[C@H]1C1CCC(F)(F)CC1)C(=O)N[C@@H](C[C@H]1CCNC1=O)[C@H](O)S(=O)(=O)O | 170
CC(C)C[C@H](NC(=O)OC[C@@H]1C[C@H]1C1CCCCC1)C(=O)N[C@@H](C[C@H]1CCNC1=O)[C@H](O)S(=O)(=O)O | 170
COc1ccc([C@@H]2C[C@H]2COC(=O)N[C@@H](CC(C)C)C(=O)N[C@@H](C[C@H]2CCNC2=O)[C@@H](O)S(=O)(=O)O)cc1 | 170
CC(C)C[C@H](NC(=O)OC[C@@H]1C[C@H]1c1cccc(Cl)c1)C(=O)N[C@H](C=O)C[C@H]1CCNC1=O | 170
CCC[C@@H]1C[C@H]1COC(=O)N[C@@H](CC(C)C)C(=O)N[C@@H](C[C@H]1CCNC1=O)[C@@H](O)S(=O)(=O)O | 170
CC(C)C[C@H](NC(=O)OC[C@@H]1C[C@H]1c1ccccc1)C(=O)N[C@H](C=O)C[C@H]1CCNC1=O | 170

Tested on: SARS-CoV-2
Assay: Antiviral activity against SARS-CoV-2 infected in African green monkey Vero E6 cells assessed as reduction in viral replication incubated for 72 hrs by RT-qPCR analysis
Assay type: functional, organism-based
Conditions: Severe acute respiratory syndrome coronavirus 2, Vero C1008, 72 h

Compound | EC50 [nM]
CC[C@H](NC[C@H](CS(=O)(=O)CC1CC1)N[C@@H](c1ccc(F)cc1)C(F)(F)F)C(=O)C(=O)NC1CC1 | 300

Molecular target: not listed separately
Assay: Binding affinity to SARS-CoV-2 Main protease assessed as inhibition constant
Design: species or system Severe acute respiratory syndrome coronavirus 2
Conditions: not given

Compound | Ki [nM]
CN(C)C(=O)COc1ccc(-c2cccc3[nH]ncc23)cc1C=O | 37
COc1cc(-c2cccc3[nH]ncc23)cc(C=O)c1OCC(=O)N1CCC(c2cccc(C(=O)N(C)C)c2)C1 (stereo not given) | 45
COc1cc(-c2cccc3[nH]ncc23)cc(C=O)c1OCC(=O)N(C)C | 20

Tested on: not listed separately
Assay: Inhibition of SARS-CoV-2 Main protease
Design: species or system Severe acute respiratory syndrome coronavirus 2
Conditions: not given

Compound | IC50 [nM]
CC(C)C[C@H](NC(=O)O[C@@H](C)c1ccccc1)C(=O)N[C@H](C=O)C[C@@H]1CCNC1=O | 130
COc1cccc2[nH]c(C(=O)N[C@@H](CC(C)C)C(=O)N[C@@H](C[C@@H]3CCNC3=O)C(=O)CO)cc12 [PF-00835231] | 600
CCCCCCNC(=O)n1cc(F)c(=O)[nH]c1=O [CARMOFUR] | 18
CC(C)C[C@H](NC(=O)[C@@H](NC(=O)C1CCCCC1)C(C)C)C(=O)N[C@H](C=O)C[C@@H]1CCCNC1=O | 240
CC(C)C[C@H](NC(=O)OC(C)(C)C1CCC(F)(F)CC1)C(=O)N[C@@H](C[C@H]1CCNC1=O)C(O)S(=O)(=O)O (stereo not given in full) | 125
COc1cccc2[nH]c(C(=O)N[C@@H](CC(C)C)C(=O)N[C@@H](C[C@@H]3CCNC3=O)C(=O)COP(=O)(O)O)cc12 [LUFOTRELVIR] | 9
O=C(Oc1cncc(Cl)c1)c1cccs1 | 81
CCCCC1CCC(OC(=O)N[C@@H](CC(C)C)C(=O)N[C@H](C=O)C[C@H]2CCNC2=O)CC1 (stereo not given in full) | 130
O=C[C@H](C[C@@H]1CCNC1=O)NC(=O)[C@H](CC1CC1)NC(=O)OCc1cccc(F)c1 | 14
C=CC(=O)N(c1ccc(C(C)(C)C)cc1)C(C(=O)NCCOC)c1cccnc1 (stereo not given) | 2860
CCOC(=O)/C=C/[C@H](C[C@@H]1CCNC1=O)NC(=O)[C@@H](CC(=O)[C@@H](NC(=O)c1cc(C)on1)C(C)C)Cc1ccc(F)cc1 | 68000
COc1cc(O)c2c(c1)O[C@H](c1cc(O)c(O)c(O)c1)[C@@H](O)C2=O | 260
C=CC(=O)N(c1ccc(C(C)(C)C)cc1)C(C(=O)NCCSC)c1cccnc1 (stereo not given) | 2860
[2H]c1c([2H])c([2H])c(COC(C)N[C@@H](CC(C)C)C(=O)N[C@H](C=O)C[C@@H]2CCNC2=O)c([2H])c1[2H] (stereo not given in full) | 160
O=C[C@H](C[C@@H]1CCNC1=O)NC(=O)[C@H](CC1CC1)NC(=O)OCc1ccccc1 | 130
COc1cc(O)c2c(=O)c(O)c(-c3cc(O)c(O)c(O)c3)oc2c1 | 300
C=CC(=O)N(c1ccc(C(C)(C)C)cc1)C(C(=O)NC)c1cccnc1 (stereo not given) | 2860
C=CC(=O)N(c1ccc(C(C)(C)C)cc1)C(C(=O)NCCc1cccc(F)c1)c1cccnc1 (stereo not given) | 2860
COc1cccc2[nH]c(C(=O)N3C[C@H]4[C@@H]([C@H]3C(=O)N[C@@H](C[C@@H]3CCNC3=O)C(=O)c3nc5ccccc5s3)C4(C)C)cc12 | 55

Tested on: SARS-CoV-2
Assay: Antiviral activity against SARS-CoV-2 infected in Vero E6 cells assessed as inhibition of viral replication
Assay type: functional, organism-based
Conditions: Severe acute respiratory syndrome coronavirus 2, Vero C1008

Compound | EC50 [nM]
CCOC(=O)/C=C/[C@H](C[C@@H]1CCNC1=O)NC(=O)[C@@H](CC(=O)[C@@H](NC(=O)c1cc(C)on1)C(C)C)Cc1ccc(F)cc1 | 1870
COc1cc(O)c2c(c1)O[C@H](c1cc(O)c(O)c(O)c1)[C@@H](O)C2=O | 8000
COc1cc(O)c2c(=O)c(O)c(-c3cc(O)c(O)c(O)c3)oc2c1 | 8000

Molecular target: T1, Replicase polyprotein 1ab
Assay: Inhibition of SARS-CoV-2 3CL protease
Conditions: not given

Compound | IC50 [nM]
CC(C)C[C@H](NC(=O)OC[C@@H]1C[C@H]1C1CCCCC1)C(=O)N[C@@H](C[C@H]1CCNC1=O)[C@H](O)S(=O)(=O)O | 280

Tested on: not listed separately
Assay: Inhibition of SARS-Cov-2 Main protease by FRET assay
Design: species or system Severe acute respiratory syndrome coronavirus 2
Conditions: not given

Compound | IC50 [nM]
CCOC(=O)/C=C/[C@H](C[C@@H]1CCNC1=O)NC(=O)[C@@H](CC(=O)[C@@H](NC(=O)c1cc(C)on1)C(C)C)Cc1ccc(F)cc1 | 47000

Tested on: SARS-CoV-2
Assay: Antiviral activity against SARS-CoV-2 infected in Vero E6 cells assessed as reduction in viral replication
Assay type: functional, organism-based
Conditions: Severe acute respiratory syndrome coronavirus 2, Vero C1008

Compound | EC50 [nM]
CN(C)C(=O)COc1ccc(-c2cccc3[nH]ncc23)cc1C=O | 2500
COc1cc(-c2cccc3[nH]ncc23)cc(C=O)c1OCC(=O)N(C)C | 5190

Source: ChEMBL document CHEMBL6120938, “Covalent small-molecule inhibitors of SARS-CoV-2 Mpro: Insights into their design, classification, biological activity, and binding interactions” (Eur J Med Chem, 2024)
